Source: ChEMBL document CHEMBL2385030, “Crystallographic Investigation and Selective Inhibition of Mutant Isocitrate Dehydrogenase” (ACS Med Chem Lett, 2013)

Columns and labels:
WI-38 = test: Cytotoxicity against human WI38 cells assessed as growth inhibition after 48 hrs by MTS assay; format: cell-based; conditions: WI-38, 48 h
[1] = molecular target: Isocitrate dehydrogenase [NADP] cytoplasmic (Homo sapiens, UniProt O75874); test: Inhibition of wild type IDH1 (unknown origin) expressed in Escherichia coli BL21 using […] as substrate incubated for 5 mins prior to substrate addition measured every 30 secs
Sequence of Isocitrate dehydrogenase [NADP] cytoplasmic (O75874 whole entry): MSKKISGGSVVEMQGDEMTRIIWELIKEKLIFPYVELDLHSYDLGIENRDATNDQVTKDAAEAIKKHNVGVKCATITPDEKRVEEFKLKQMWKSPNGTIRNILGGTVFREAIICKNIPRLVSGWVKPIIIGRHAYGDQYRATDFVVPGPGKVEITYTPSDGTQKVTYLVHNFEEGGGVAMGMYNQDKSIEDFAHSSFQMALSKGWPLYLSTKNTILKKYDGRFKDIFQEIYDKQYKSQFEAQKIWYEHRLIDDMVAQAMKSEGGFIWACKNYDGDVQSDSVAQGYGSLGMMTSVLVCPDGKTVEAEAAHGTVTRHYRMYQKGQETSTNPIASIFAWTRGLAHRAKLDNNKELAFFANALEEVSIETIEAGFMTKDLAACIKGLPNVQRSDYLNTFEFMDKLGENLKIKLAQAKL

| Compound | EC50 (WI-38) [µM] | Ki [1] [µM] |
| --- | --- | --- |
| Cc1cc(Cc2ccccc2)n(O)c(=O)c1 | > 50 | – |
| CC(C)c1cc(Cc2ccccc2)n(O)c(=O)c1 | > 50 | – |
| O=c1cccc(Cc2ccccc2)n1O | > 50 | – |
| Cc1cc(Cc2ccc(O)cc2)n(O)c(=O)c1 | > 50 | – |
| Cc1cc(-c2ccccc2)n(O)c(=O)c1 | – | > 50 |
